This is an account of results in patent US9365522B2, “Pyrazole amide derivative” (AMGEN INC., priority 2015, dated 2016).

SMILES strings stand for the structures.

For the experiment, the target named is T1, ligand binding domain of human ROR gamma (Homo sapiens, UniProt P51449).
T1 construct: NM_001001523; expressed in transfected cells; host or cells: HEK293T
T1 sequence (P51449 247-497 isoform P51449-2): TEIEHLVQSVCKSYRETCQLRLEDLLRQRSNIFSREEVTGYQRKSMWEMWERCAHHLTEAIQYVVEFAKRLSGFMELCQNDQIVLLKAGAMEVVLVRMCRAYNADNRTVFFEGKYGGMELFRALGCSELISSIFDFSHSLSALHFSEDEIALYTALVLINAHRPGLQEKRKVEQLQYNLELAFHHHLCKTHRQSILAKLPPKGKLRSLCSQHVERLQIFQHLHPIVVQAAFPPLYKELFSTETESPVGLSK
In words: ROR gamma reporter gene assay (GAL4-RORγ LBD luciferase, Dual-Glo). Type of experiment: cell-based. To be noted: HEK293T cells transfected with pM-ROR gamma, 8 concentrations 3.5 nM to 10.5 μM, 24 h incubation; read-out: result (pIC50, inhibition of RORγ transcriptional activity) (converted). Put shortly:
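HEK293T cells were co-transfected with GAL4 DBD fused to human RORγ LBD (aa 247-497), a 5×UAS firefly luciferase reporter and CMV-driven renilla luciferase, in medium with 10% charcoal-stripped FBS.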
Background: In a reporter assay the amount or activity of a reporter protein is the signal.
As for `Cc1cncc(C)c1C(=O)CN(Cc1cc(F)cc(F)c1)C(=O)c1cnn([C@H]2CC[C@H](C(=O)O)CC2)c1C(F)(F)F` [Example 52], the IC50 was 245000 pM. In the case of `O=C(CN(Cc1cc(F)cc(F)c1)C(=O)c1cnn([C@H]2CC[C@H](C(=O)O)CC2)c1C(F)(F)F)c1c(Cl)cccc1Cl` [Example 53, trans-4-(4-((2-(2,6-dichlorophenyl)-2-oxoethyl)(3,5-difluorobenzyl)carbamoyl)-5-(trifluoromethyl)-1H-pyrazol-1-yl)cyclohexanecarboxylic acid] it was 16200 pM; in that of `COc1cccc(Cl)c1C(=O)CN(Cc1cc(F)cc(F)c1)C(=O)c1cnn([C@H]2CC[C@H](C(=O)O)CC2)c1C(F)(F)F` [Example 54, trans-4-(4-((2-(2-chloro-6-methoxyphenyl)-2-oxoethyl)(3,5-difluorobenzyl)carbamoyl)-5-(trifluoromethyl)-1H-pyrazol-1-yl)cyclohexanecarboxylic acid], 70800 pM; in that of `O=C(CN(Cc1cc(F)cc(F)c1)C(=O)c1cnn([C@H]2CC[C@H](C(=O)O)CC2)c1C(F)(F)F)c1c(Cl)cc(F)cc1Cl` [Example 55, trans-4-(4-((2-(2,6-dichloro-4-fluorophenyl)-2-oxoethyl)(3,5-difluorobenzyl)carbamoyl)-5-(trifluoromethyl)-1H-pyrazol-1-yl)cyclohexanecarboxylic acid], 8910 pM.

Consider `O=C(CN(Cc1cc(F)cc(F)c1)C(=O)c1cnn([C@H]2CC[C@H](C(=O)O)CC2)c1C(F)(F)F)c1c(Cl)cc(Cl)cc1Cl` [Example 56, trans-4-(4-((3,5-difluorobenzyl)(2-oxo-2-(2,4,6-trichlorophenyl)ethyl)carbamoyl)-5-(trifluoromethyl)-1H-pyrazol-1-yl)cyclohexanecarboxylic acid], for which the IC50 is 15500 pM. For `O=C(CN(Cc1cc(F)cc(F)c1)C(=O)c1cnn([C@H]2CC[C@H](C(=O)O)CC2)c1C(F)(F)F)c1c(Cl)cc(C(F)(F)F)cc1Cl` [Example 57, trans-4-(4-((2-(2,6-dichloro-4-(trifluoromethyl)phenyl)-2-oxoethyl)(3,5-difluorobenzyl)carbamoyl)-5-(trifluoromethyl)-1H-pyrazol-1-yl)cyclohexanecarboxylic acid], the IC50 was 38000 pM. Consider `N#Cc1cc(Cl)c(C(=O)CN(Cc2cc(F)cc(F)c2)C(=O)c2cnn([C@H]3CC[C@H](C(=O)O)CC3)c2C(F)(F)F)c(Cl)c1` [Example 58, trans-4-(4-((2-(2,6-dichloro-4-cyanophenyl)-2-oxoethyl)(3,5-difluorobenzyl)carbamoyl)-5-(trifluorornethyl)-1H-pyrazol-1-yl)cyclohexanecarboxylic acid], for which the IC50 was 135000 pM. In the case of `O=C(CN(Cc1cc(F)cc(F)c1)C(=O)c1cnn([C@H]2CC[C@H](C(=O)O)CC2)c1C(F)(F)F)c1cc(Cl)cc(Cl)c1` [Example 59, trans-4-(4-((2-(3,5-dichlorophenyl)-2-oxoethyl)(3,5-difluorobenzyl)carbamoyl)-5-(trifluoromethyl)-1H-pyrazol-1-yl)cyclohexanecarboxylic acid] it was 5.89e+06 pM; in that of `O=C(CN(Cc1cc(F)cc(F)c1)C(=O)c1cnn([C@H]2CC[C@H](C(=O)O)CC2)c1C(F)(F)F)c1cc(F)cc(F)c1` [Example 60, trans-4-(4-((3,5-difluorobenzyl)(2-(3,5-difluorophenyl)-2-oxoethyl)carbamoyl)-5-(trifluoromethyl)-1H-pyrazol-1-yl)cyclohexanecarboxylic acid], more than 1e+07 pM.

As for `O=C(CN(Cc1cc(F)cc(F)c1)C(=O)c1cnn([C@H]2CC[C@H](C(=O)O)CC2)c1C(F)(F)F)c1ccc(F)cc1Cl` [Example 61, trans-4-(4-((2-(2-chloro-4-fluorophenyl)-2-oxoethyl)(3,5-difluorobenzyl)carbamoyl)-5-(trifluoromethyl)-1H-pyrazol-1-yl)cyclohexanecarboxylic acid], the IC50 was 200000 pM. On to `O=C(CN(Cc1cc(F)cc(F)c1)C(=O)c1cnn([C@H]2CC[C@H](C(=O)O)CC2)c1C(F)(F)F)c1ccncc1` [Example 62, trans-4-(4-((3,5-difluorobenzyl)(2-oxo-2-(pyridin-4-yl)ethyl)carbamoyl)-5-(trifluoromethyl)-1H-pyrazol-1-yl)cyclohexanecarboxylic acid], for which the IC50 was more than 1e+07 pM. As for `Cc1coc(C)c1C(=O)CN(Cc1cc(F)cc(F)c1)C(=O)c1cnn([C@H]2CC[C@H](C(=O)O)CC2)c1C(F)(F)F` [Example 63, trans-4-(4-((3,5-difluorobenzyl)(2-(2,4-dimethylfuran-3-yl)-2-oxoethyl)carbamoyl)-5-(trifluoromethyl)-1H-pyrazol-1-yl)cyclohexanecarboxylic acid], the IC50 is 3.39e+06 pM. With `Cc1noc(C)c1C(=O)CN(Cc1cc(F)cc(F)c1)C(=O)c1cnn([C@H]2CC[C@H](C(=O)O)CC2)c1C(F)(F)F` [Example 64, trans-4-(4-((3,5-difluorobenzyl)(2-(3,5-dimethylisoxazol-4-yl)-2-oxoethyl)carbamoyl)-5-(trifluoromethyl)-1H-pyrazol-1-yl)cyclohexanecarboxylic acid] the figure was more than 1e+07 pM; with `O=C(CN(Cc1cc(F)cc(F)c1)C(=O)c1cnn([C@H]2CC[C@H](C(=O)O)CC2)c1C(F)(F)F)C1CCCCC1` [Example 65, trans-4-(4-((2-cyclohexyl-2-oxoethyl)(3,5-difluorobenzyl)carbamoyl)-5-(trifluoromethyl)-1H-pyrazol-1-yl)cyclohexanecarboxylic acid], more than 1e+07 pM. For `O=C(CN(Cc1cc(F)cc(F)c1)C(=O)c1cnn([C@H]2CC[C@H](C(=O)O)CC2)c1C(F)(F)F)c1c(Cl)cc(C2CC2)cc1Cl` [Example 66, trans-4-(4-((2-(2,6-dichloro-4-cyclopropylphenyl)-oxoethyl)(3,5-difluorobenzyl)carbamoyl)-5-(trifluoromethyl)-1H-pyrazol-1-yl)cyclohexanecarboxylic acid], the IC50 is 83200 pM. With `COc1cc(Cl)c(C(=O)CN(Cc2cc(F)cc(F)c2)C(=O)c2cnn([C@H]3CC[C@H](C(=O)O)CC3)c2C(F)(F)F)c(Cl)c1` [Example 67, trans-4-(4-((2-(2,6-dichloro-4-methoxyphenyl)-2-oxoethyl)(3,5-dffluorobenzyl)carbamoyl)-5-(trifluoromethyl)-1H-pyrazol-1-yl)cyclohexanecarboxylic acid] the figure was 56200 pM; with `C#Cc1cccc(Cl)c1C(=O)CN(Cc1cc(F)cc(F)c1)C(=O)c1cnn([C@H]2CC[C@H](C(=O)O)CC2)c1C(F)(F)F` [Example 68, trans-4-(4-((2-(2-chloro-6-ethynylphenyl)-2-oxoethyl)(3,5-difluorobenzyl)carbamoyl)-5-(trifluoromethyl)-1H-pyrazol-1-yl)cyclohexanecarboxylic acid], 1.32e+06 pM. In the case of `O=C(CN(Cc1cc(F)cc(F)c1)C(=O)c1cnn([C@H]2CC[C@H](C(=O)O)CC2)c1C(F)(F)F)c1ccc(O)cc1` [Example 69, trans-4-(4-((3,5-difluorobenzyl)(2-(4-hydroxyphenyl)-2-oxoethyl)carbamoyl)-5-(trifluoromethyl)-1H-pyrazol-1-yl)cyclohexanecarboxylic acid] it was more than 1e+07 pM.
